Experimental data: paper PMC6456166, “Mitochondrial type II NADH dehydrogenase of Plasmodium falciparum (PfNDH2) is dispensable in the asexual blood stages” (PLoS ONE, 2019)

Biological target: T1, cytochrome bc1 complex (cytochrome b, cyt b) (Plasmodium falciparum, UniProt Q02768)
T1 construct: gene MT-CYB; native bc1 complex in mitochondria-enriched preparations from D10 WT and ΔPfNDH2 parasites; with other subunits of the bc1 complex (Complex III)
T1 sequence (Q02768 1-376): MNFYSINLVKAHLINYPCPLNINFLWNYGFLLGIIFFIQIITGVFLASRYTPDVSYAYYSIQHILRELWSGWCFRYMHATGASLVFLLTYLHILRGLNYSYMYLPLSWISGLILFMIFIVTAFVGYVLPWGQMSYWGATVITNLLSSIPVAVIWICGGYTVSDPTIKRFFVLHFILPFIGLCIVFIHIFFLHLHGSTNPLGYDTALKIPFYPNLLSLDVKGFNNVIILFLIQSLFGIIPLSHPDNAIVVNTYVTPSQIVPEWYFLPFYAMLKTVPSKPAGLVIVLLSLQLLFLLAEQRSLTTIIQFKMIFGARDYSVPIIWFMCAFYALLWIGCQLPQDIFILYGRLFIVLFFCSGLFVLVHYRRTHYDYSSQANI
Experiment: ubiquinol-cytochrome c reductase assay in isolated parasite mitochondria ([…] nm), dose-dependent inhibition in WT and ΔPfNDH2
Type: cell-based

## CCCCCCCCCCCCc1cc(=O)c2ccccc2n1O [HDQ, 1-hydroxy-2-dodecyl-4(1H) quinolone]
  ubiquinol-cytochrome c reductase assay in isolated parasite mitochondria (550 nm): HDQ and CK-2-68 inhibited the ubiquinol-cytochrome c reductase activity in the mitochondria of ΔPfNDH2 and WT
